Measurements as given in patent publication US8946439B2, “Amide compounds, compositions and uses thereof” (Evotec AG, priority 2008, dated 2015).
Read-outs that look alike come from different tables or passages of the source.

Columns and labels:
[1] = target: T1, hP2X3 (Homo sapiens, UniProt P56373); assay: Calcium uptake assay (P2X antagonist assay), P2X3 homomer; format: cell-based; details: hP2X3
T1 construct: expressed in transfected cells; host or cells: e.g. HEK293 or 1321N1
T1 sequence (P56373 1-397): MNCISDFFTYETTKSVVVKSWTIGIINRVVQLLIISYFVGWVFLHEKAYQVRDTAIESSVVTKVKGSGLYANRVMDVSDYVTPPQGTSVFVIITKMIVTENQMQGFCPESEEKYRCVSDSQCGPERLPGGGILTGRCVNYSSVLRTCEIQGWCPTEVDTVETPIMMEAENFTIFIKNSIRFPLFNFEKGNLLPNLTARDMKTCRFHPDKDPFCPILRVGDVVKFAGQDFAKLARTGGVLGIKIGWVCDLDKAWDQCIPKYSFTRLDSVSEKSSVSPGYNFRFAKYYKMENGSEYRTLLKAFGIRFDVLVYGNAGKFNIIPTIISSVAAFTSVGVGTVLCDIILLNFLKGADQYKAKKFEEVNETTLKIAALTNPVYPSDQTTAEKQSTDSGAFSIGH
Excerpt: (§1) The human P2X2/3 chimera clone is created as described by Neelands et al, and then cloned into an expression vector as above. Receptors are expressed in cells (e.g., HEK293 or 1321N1 (obtained from the ECACC)) via transient transfection using standard lipid mediated transfection, or by creation of stable transfectants for each receptor. For expression of the P2X2/3 heteromeric receptor, the P2X3 expression vector is stably transfected into a cell line already stably expressing P2X2. P2X2/3 heteromer function is isolated using pharmacological methods. Cell lines are maintained in DMEM+5% Glutamax, the appropriate level of selective antibiotic, and 10% heat inactivated FBS.
(§2) Functional activity of compounds at the P2X receptor is determined by measuring their ability to inhibit agonist-induced calcium influx. Compounds are tested for antagonist activity against the P2X2/3 chimera, the P2X3 homomer, or the P2X2/3 heteromer. At the start of each screening day, the agonist EC50 is determined. Compound % inhibition or IC50s are subsequently determined using a predetermined agonist concentration (EC50-90 depending on cell line) as a stimulus. The agonists used are αβMeATP, ATP, or other ATP analogs. Compounds may be tested at concentrations ranging from 1 pM to 10 μM.
(§3) To test for antagonist activity, cells expressing the appropriate receptor are seeded onto 96 or 384 well plates 18-24 hours prior to assay. […] Plates are incubated at 37° C. and then equilibrated at room temperature. Antagonism of agonist-induced calcium influx is measured using a fluorescent imaging plate reader (e.g. FLIPR^TETRA, Molecular Devices, Sunnyvale, Calif.). The assay comprises two stages: a pre-treatment phase followed by a treatment phase. Compounds may be tested as follows: For the pre-treatment phase, 50 μL of 3× concentration of test compound in HBSS is added to cells containing […], of dye loading media to achieve a final concentration of 1× test compound. For the treatment phase, at a set interval after pre-treatment (1-30 minutes), 50 μL of 1× test compound plus 4× agonist solution is added, resulting in a final concentration of 1× compound and 1× agonist. […] Responses are measured as (peak fluorescence after agonist addition) minus (baseline fluorescence prior to treatment). Percent inhibition is calculated as follows:
(§4) [formula] IC50 values are determined by analyzing dose response data in a 4 parameter logistic fit using GraphPad Prizm.

[2] = target: T2, hP2X2/3H (Homo sapiens, UniProt P56373+Q9UBL9); assay: Calcium uptake assay (P2X antagonist assay), P2X2/3 heteromer; format: cell-based; details: hP2X2/3H
T2 construct: expressed in transfected cells; host or cells: e.g. HEK293 or 1321N1
T2 sequence (Q9UBL9 1-471): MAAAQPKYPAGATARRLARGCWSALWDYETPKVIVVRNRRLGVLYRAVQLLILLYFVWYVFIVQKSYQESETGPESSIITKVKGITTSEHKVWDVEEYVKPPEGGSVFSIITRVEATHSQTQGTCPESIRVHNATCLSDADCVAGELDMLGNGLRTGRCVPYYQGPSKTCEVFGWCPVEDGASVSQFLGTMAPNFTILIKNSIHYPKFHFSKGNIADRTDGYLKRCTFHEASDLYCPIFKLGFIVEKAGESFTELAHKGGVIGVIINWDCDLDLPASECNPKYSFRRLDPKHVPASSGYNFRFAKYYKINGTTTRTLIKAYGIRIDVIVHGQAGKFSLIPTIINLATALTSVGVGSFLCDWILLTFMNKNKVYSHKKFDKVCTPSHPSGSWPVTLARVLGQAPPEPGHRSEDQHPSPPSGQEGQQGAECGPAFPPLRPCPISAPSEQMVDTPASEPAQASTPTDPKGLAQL
T2 sequence (P56373 1-397): T1 sequence (P56373 1-397)
Excerpt: as §1, §2, §3, §4

[3] = Ca influx (calcium uptake assay), read-out: IC50 hP2X3
[4] = Ca influx (calcium uptake assay), read-out: IC50 hP2X2/3H
[5] = calcium uptake assay, read-out: IC50 hP2X3 (nM), Ca Influx
[6] = calcium uptake assay, read-out: IC50 hP2X2/3H (nM), Ca Influx

Compound | IC50 [1, 3] | IC50 [2, 4] | IC50 [1, 5] | IC50 [2, 6]
Cc1ccc(-c2cc(OC3COCC3O)cc(C(=O)N[C@H](C)c3ccc(C)nc3)c2)cc1 (stereo partly drawn) [Compound 336, 5-(4-Hydroxytetrahydrofuran-3-yloxy)-4′-methyl-N—((R)-1-(6-methylpyridin-3-yl)ethyl)biphenyl-3-carboxamide] | < 100 nM | < 100 nM |  | 
Cc1ccc(-c2cc(C(=O)N[C@H](C)c3ccc(C)nc3)cc(C(O)c3ccccn3)c2)nc1 (stereo partly drawn) [Compound 287] | < 100 nM | < 100 nM |  | 
Cc1ccc(-c2cc(Oc3ccccn3)cc(C(=O)N[C@H](C)c3cnc(C)nc3)c2)c(C#N)c1 [Compound 258] | < 100 nM | 100 to 500 nM |  | 
Cc1ccc(-c2cc(C(=O)NCc3ccc(C(F)(F)F)nc3)cc(C(=O)N3CCCC3)c2)nc1 [Compound 123] |  |  | < 100 nM | < 100 nM
COCCOc1cc(C(=O)N[C@H](C)c2cnc(C)nc2)cc(-c2ccc(C)cc2C#N)c1 [Compound 253] | < 100 nM | < 100 nM |  | 
Cc1ccc(-c2cc(C(=O)NCc3ccc4c(c3)OCO4)cc(C(=O)N3CCCC3)c2)cc1 [Compound 98] |  |  | 100 to 500 nM | 100 to 500 nM
Cc1ccc(-c2cc(C(=O)NCc3cnc(C)nc3)cc(C(=O)N3CCCC3C(F)(F)F)c2)cc1 (stereo not drawn) [Compound 33] |  |  | < 100 nM | < 100 nM
Cc1ccc(-c2cc(C(=O)NCc3ccc(C(F)(F)F)nc3)cc(C(=O)N3CCCC3)c2)cc1 [Compound 47] |  |  | 100 to 500 nM | 100 to 500 nM
Cc1ccc(-c2cc(OCC3COCCO3)cc(C(=O)N[C@H](C)c3ccc(C)nc3)c2)c(C#N)c1 (stereo partly drawn) [Compound 317] | < 100 nM | < 100 nM |  | 
Cc1ccc(-c2cc(C(=O)NCc3ccc(C)[n+]([O-])c3)cc(C(O)CN3CCCC3)c2)cc1 (stereo not drawn) [Compound 208] | < 100 nM | 100 to 500 nM |  | 
CCS(=O)(=O)c1cc(C(=O)N[C@H](C)c2cnc(C)nc2)cc(-c2ccc(C)cc2)c1 [Compound 210] | < 100 nM | < 100 nM |  | 
Cc1ccc(-c2cc(C(=O)N[C@H](C)c3cnc(C)nc3)cc(C(=O)N3CCN4CCCC4C3)c2)cc1 (stereo partly drawn) [Compound 191, 4′-Methyl-N—((R)-1-(2-methylpyrimidin-5-yl)ethyl)-5-(octahydropyrrolo[1,2-a]pyrazine-2-carbonyl)biphenyl-3-carboxamide] |  |  | < 100 nM | < 100 nM
Cc1ccc(-c2cc(C(=O)NC(C)c3ccc(Cl)cc3Cl)cc(S(C)(=O)=O)c2)nc1 (stereo not drawn) [Compound 387] | 100 to 500 nM | > 1000 nM |  | 
Cc1ccc(-c2cc(C(=O)N[C@H](C)c3cnc(C)nc3)cc(C(=O)N3CC(O)C3)c2)cc1 [Compound 76] |  |  | < 100 nM | < 100 nM
Cc1ccc(-c2cc(Oc3ncccn3)cc(C(=O)NCc3ccc(C)nc3)c2)cc1 [Compound 233] | 100 to 500 nM | 100 to 500 nM |  | 
Cc1ccc(-c2cc(C(=O)N[C@H](C)c3ccc(C)nc3)cc(C(O)CO)c2)nc1 (stereo partly drawn) [Compound 319] | < 100 nM | 100 to 500 nM |  | 
Cc1ccc(-c2cc(C(=O)N[C@H](C)c3cnc(C)nc3)cc(C(O)c3nccs3)c2)nc1 (stereo partly drawn) [Compound 292] | < 100 nM | < 100 nM |  | 
Cc1ccc(-c2cc(OC3CCOC3)cc(C(=O)N[C@H](C)c3cnc(C)nc3)c2)c(C#N)c1 (stereo partly drawn) [Compound 358] | < 100 nM | < 100 nM |  | 

Compound | IC50 [1, 3] | IC50 [2, 4] | IC50 [1, 5] | IC50 [2, 6]
Cc1ccc(-c2cc(C(=O)NCc3ccc(C)nc3)cc(S(=O)(=O)N3CCCC3)c2)nc1 [Compound 106] |  |  | < 100 nM | < 100 nM
Cc1ccc(-c2cc(C(=O)NCc3ccc(C(F)(F)F)nc3)cc(C(=O)N3CC(O)C3)c2)cc1 [Compound 130, 5-(3-Hydroxyazetidine-1-carbonyl)-4′-methyl-N-((6-(trifluoromethyl)pyridin-3-yl)methyl)biphenyl-3-carboxamide] |  |  | < 100 nM | < 100 nM
Cc1ccc(-c2cc(C(=O)N[C@H](C)c3ccc(C)nc3)cc(C(=O)c3ccccc3)c2)cc1 [Compound 229, (R)-5-Benzoyl-4′-methyl-N-(1-(6-methylpyridin-3-yl)ethyl)biphenyl-3-carboxamide] | 100 to 500 nM | < 100 nM |  | 
COCc1cc(C(=O)NCc2cnc(C)nc2)cc(-c2ccc(C)cn2)c1 [Compound 275] | 100 to 500 nM | 501 to 1000 nM |  | 
Cc1ccc(-c2cc(C(=O)N[C@@H](C)CO)cc(C(=O)N[C@@H](C)CO)c2)cc1 [Compound 5] |  |  | > 1000 nM | 501 to 1000 nM
Cc1ccc(-c2cc(Oc3ncccn3)cc(C(=O)N[C@H](C)c3ccc(C)nc3)c2)c(C#N)c1 [Compound 246] | < 100 nM | 100 to 500 nM |  | 
Cc1ccc(-c2cc(C(=O)NCc3ccc(C)[n+]([O-])c3)cc(S(C)(=O)=O)c2)cc1 [Compound 256, 2-Methyl-5-((4′-methyl-5-(methylsulfonyl)biphenyl-3-ylcarboxamido)methyl)pyridine 1-oxide] | < 100 nM | < 100 nM |  | 
Cc1ccc(-c2cc(C(=O)NCc3ccn4ccnc4c3)cc(C(=O)N3CCCC3)c2)cc1 [Compound 50] |  |  | < 100 nM | < 100 nM
Cc1ccc(-c2cc(C(=O)N[C@H](C)c3ccc(C)nc3)cc(C(C)O)c2)nc1 (stereo partly drawn) [Compound 331] | < 100 nM | < 100 nM |  | 
Cc1ccc(-c2cc(Oc3nc4c(s3)CCCC4)cc(C(=O)N[C@H](C)c3ccc(C)nc3)c2)cc1 [Compound 393] | 100 to 500 nM | 100 to 500 nM |  | 
Cc1ccc(-c2cc(C(=O)NCc3ccc(C)nc3)cc(C(O)CN3CC(C)OC(C)C3)c2)cc1 (stereo not drawn) [Compound 391] | < 100 nM | < 100 nM |  | 
Cc1ccc(-c2cc(OC(C)CO)cc(C(=O)N[C@H](C)c3ccc(C)nc3)c2)c(C#N)c1 (stereo partly drawn) [Compound 377] | < 100 nM | < 100 nM |  | 
Cc1ccc(-c2cc(OC3CCOC3)cc(C(=O)N[C@H](C)c3ccc(C)nc3)c2)nc1 (stereo partly drawn) [Compound 333] | < 100 nM | < 100 nM |  | 
Cc1ccc(-c2cc(Oc3nc(C)cs3)cc(C(=O)N[C@H](C)c3ccc(C)nc3)c2)nc1 [Compound 374] | < 100 nM | < 100 nM |  | 
COc1ncc([C@@H](C)NC(=O)c2cc(-c3ccc(C)cc3)cc(S(C)(=O)=O)c2)cn1 [Compound 114] |  |  | < 100 nM | 100 to 500 nM
CCN(CC)CC(O)c1cc(C(=O)N[C@H](C)c2ccc(C)nc2)cc(-c2ccc(C)cn2)c1 (stereo partly drawn) [Compound 342, 3-(2-(Diethylamino)-1-hydroxyethyl)-5-(5-methylpyridin-2-yl)-N—((R)-1-(6-methylpyridin-3-yl)ethyl)benzamide] | < 100 nM | 100 to 500 nM |  | 
Cc1ccc(-c2cc(OC3CCOC3)cc(C(=O)N[C@H](C)c3ccc(C)nc3)c2)cc1 (stereo partly drawn) [Compound 308, 4′-Methyl-N—((R)-1-(6-methylpyridin-3-yl)ethyl)-5-(tetrahydrofuran-3-yloxy)biphenyl-3-carboxamide] | < 100 nM | < 100 nM |  | 
Cc1ccc(-c2cc(Oc3nccs3)cc(C(=O)N[C@H](C)c3cnc(C)nc3)c2)nc1 [Compound 269, (R)-3-(5-Methylpyridin-2-yl)-N-(1-(2-methylpyrimidin-5-yl)ethyl)-5-(thiazol-2-yloxy)benzamide] | < 100 nM | < 100 nM |  | 
